Assay [1] concerns human colonoids. In words: Cytokine treatment of human colonoids, RNA-seq. As to conditions: human colonoids, 24 hours. The class given is cell-based. The protocol:
All patients provided informed consent (NRES/IRAS id:15/LO/1998). Subsequent establishment of human colonoids was performed as previously described by Sato et al (48). The crypts were cultured in growth medium containing advanced Dulbecco's modified Eagle's medium/F12, penicillin/streptomycin (100 units/mL), 10 mM HEPES, 2 mM Glutamax, supplements N2 (1×) and B27 (1×), 50 ng/mL mouse epidermal growth factor (all from Life Technologies; Carlsbad, Calif.), 1 mM N-acetylcysteine (Sigma-Aldrich; St. Louis, Mo.), 50% v/v Wnt3a conditioned medium, 10% v/v R-spondin-1 conditioned medium, 100 ng/mL murine recombinant noggin protein (Peprotech; Rocky Hill, N.J.), 10 nM gastrin (Sigma-Aldrich), 500 nM A83-01 (Bio-techne; Minneapolis, Minn.), 10 μM SB202190 (Sigma-Aldrich) and 10 mM Nicotinamide (Sigma-Aldrich). 10 μM Y-27632 (Sigma-Aldrich) was added to the culture medium for the initial 3 days. Medium was changed every 2 days. […] During the last 24 hours in differentiation medium, human colonoids were treated with human recombinant IL22 (10 ng/mL), IL17A (50 ng/mL), TNFα (10 ng/mL), IFNγ (20 ng/mL), IL13 (10 ng/mL) and IL22 (10 ng/mL)/IL17A (50 ng/mL) combination.
(§1) RNA extraction: Colonoids and LPMC were treated in a similar fashion. Cells were lysed and RNA was extracted using the RNAeasy kit (Qiagen; Hilden, Germany). This step was optimized balancing the effectiveness of elimination of DNA quantified (Qubit dsDNA HS assay kit) versus the loss of quantity of RNA (Qubit RNA BR assay kit). Optimal DNAse I concentration was determined to be ×5 the standard concentration. 500 ng of cDNA was then created using Revertaid cDNA synthesis kit (ThermoFisher) and diluted to a concentration of 6.25 ng/μl. Harvested colonoids were put in Qiazol and then RNA was extracted with the RNAeasy kit (Qiagen) as per manufacturer's guidelines. cDNA was created using the Revertaid cDNA synthesis kit (ThermoFisher).
Library preparation and sequencing: A total amount of 3 μg RNA per sample was used as input material for the RNA sample preparations. Sequencing libraries were generated using NEBNextR Ultra™ RNA Library Prep Kit for IlluminaR (NEB, Ipswich, Mass.) following manufacturer's recommendations and index codes were added to attribute sequences to each sample. Briefly, mRNA was purified from total RNA using poly-T oligo-attached magnetic beads. Fragmentation was carried out using divalent cations under elevated temperature in NEBNext First Strand Synthesis Reaction Buffer (5×). First strand cDNA was synthesized using random hexamer primer and M-MuLV Reverse Transcriptase (RNase H-). Second strand cDNA synthesis was subsequently performed using DNA Polymerase I and RNase H. Remaining overhangs were converted into blunt ends via exonuclease/polymerase activities. After adenylation of 3′ ends of DNA fragments, NEBNext Adaptor with hairpin loop structure were ligated to prepare for hybridization. In order to select cDNA fragments of preferentially 150˜200 bp in length, the library fragments were purified with AMPure XP system (Beckman Coulter, Brea, Calif.). Then 3 μl USER Enzyme (NEB) was used with size-selected, adaptor-ligated cDNA at 37° C. for 15 minutes followed by 5 minutes at 95° C. before PCR. Then PCR was performed with Phusion High-Fidelity DNA polymerase, Universal PCR primers and Index (X) Primer. At last, PCR products were purified (AMPure XP system) and library quality was assessed on the Agilent Bioanalyzer 2100 system. The clustering of the index-coded samples was performed on a cBot Cluster Generation System using HiSeq PE Cluster Kit cBot-HS (Illumina; San Diego, Calif.) according to the manufacturer's instructions. After cluster generation, the paired-end libraries were sequenced on an Illumina HiSeq platform. […]

Assay [2] relates to patients with moderate-to-severe UC. In words: UNIFI phase 3 trial: ustekinumab induction in UC patients stratified by baseline IL22 enrichment score. In kind it is in vivo, human. The following applies: week 8. From the text:
Gene Set Variation Analysis: To test the activation of each of the cytokine regulated transcriptional programs we used gene set variation analysis (GSVA) (56) to probe whole transcriptional profiles of previously reposited datasets and the dataset generated in the context of the ustekinumab and golimumab trials programs.
UNIFI trial programme: The UNIFI trial was a randomized placebo-controlled phase 3 clinical trial evaluating the efficacy and safety of ustekinumab (NCT02407236) and has already been reported (43). In this study, for the first time, transcriptional data from biopsies were reported, which were correlated to clinical, endoscopic and biomarker data available from the UNIFI cohort. Colonic biopsies were sampled at defined time points after institution of treatment in a subset of patients and were immediately transferred to RNALater (Qiagen) and stored at −80° C. prior to RNA extraction. Whole genome transcriptomics were performed on the Affymetrix HG U133 PM array. Clinical data was recorded prospectively according to the trial protocol. Outcomes reported include: clinical remission (defined as a total Mayo score of ≤2 and no subscore >1) and deep remission (which required both histologic improvement (defined as neutrophil infiltration in <5% of crypts, no crypt destruction, and no erosions, ulcerations, or granulation tissue) and endoscopic improvement) at week 8. Analysis presented is based on all patients receiving ustekinumab regardless of dose (130 mg and 6 mg/kg).
Next, it was determined whether core transcripts regulated by the IL23/IL22 axis were differentially expressed in diseased tissue of UC patients. Gene Set Variation Analysis (GSVA) is an algorithm which tests whether entire transcriptional programmes are enriched in complex and heterogeneous samples. […] Endoscopically acquired colonic biopsies were sampled from the sigmoid colon of patients with moderate-to-severe UC (n=550) enrolled to the UNIFI phase III clinical trial, a randomized, placebo controlled trial evaluating the efficacy of ustekinumab, a monoclonal antibody (mAb) that blocks the p40 subunit shared by the human IL-12 and IL-23 cytokines. […] These findings were replicated in 2 additional independent cohorts of UC patients where transcriptomic data was available in publicly accessible repositories (GSE50971 and GSE16879, FIG. 4A). […] Consistent with IL23 being an important driver of IL22, there was a significant correlation between the enrichment scores for IL23 and IL22 in colonic biopsies.
Although IL23 and IL22 responsive transcriptional programs were enriched at population level in UC patients, there was considerable variation in magnitude of enrichment. Since it was unlikely that this variation was being driven by differences in disease severity (all patients in the UNIFI trial program had moderate to severe UC, with Mayo endoscopy subscores of either 2 or 3), the possibility that this molecular heterogeneity might represent important differences in underlying disease immunobiology was considered. If molecular stratification of UC patients according to the magnitude of IL23/IL22 responsive transcript enrichment was biologically and/or clinically meaningful, it was reasoned that UC patients with different degrees of enrichment would experience different outcomes and follow different trajectories. To test this hypothesis, patients from the UNIFI trial program were stratified according to IL23 or IL22 enrichment scores (in colonic biopsies sampled immediately prior initiation with ustekinumab), and whether these differences in molecular phenotype impacted treatment response were evaluated. Enrichment scores in colonic tissue, for both cytokines, could differentiate responders and non-responders to ustekinumab induction therapy (including patients on 130 mg and 6 mg/kg dose), although, the IL22-responsive transcriptional program was especially discriminatory (FIGS. 3D-3F and FIGS. 5A-5D). […]

Assay [3] deals with lamina propria mononuclear cells (LPMC). In words: IL23 stimulation of LPMC from UC patients, RNA-seq. The class given is cell-based, human. The protocol:
Human LPMC isolation: Colonic mucosal biopsies were obtained from UC patients (n=5) with endoscopically active disease (Mayo endoscopic subscore ≥2). LPMCs were isolated using a non-digestion, ‘walk out’ method previously published (Di Marco Barros et al., 2016, Cell 167, 203-218). In brief, 9 mm×9 mm×1.5 mm Cellfoam matrices (Cytomatrix PTY Ltd; Victoria, Australia) were autoclaved and incubated in 100 μg/mL rat tail collagen I (BD Biosciences; San Jose, Calif.) in PBS for 30 min at 37° C. and washed twice in PBS. Biopsies were washed for 20 min in 5 mL wash medium (RPMI 1640 10% FCS, β-mercaptoethanol, penicillin (500U/ml), streptomycin ([…]), metronidazole (5 mg/ml), gentamicin ([…], Sigma-Aldrich) and amphotericin 12.5 mg/ml (Thermo Fisher Scientific; Waltham, Mass.)). One endoscopic biopsy was placed on top of each matrix, which was then inverted and pressure was applied to crush the biopsy into the matrix. The matrices were placed into a 24-well plate (1 per well) and covered with 2 mL RPMI 1640 (supplemented with 10% FCS, β-mercaptoethanol, penicillin (100 U/ml), streptomycin ([…]), metronidazole (1 mg/ml), gentamicin (20 mg/ml), amphotericin (2.5 mg/ml)) and IL-2 (100U/mL, Novartis Pharmaceutical UK; London, United Kingdom). Cells were harvested and residual biopsy and empty wells were washed with PBS 0.02 mM HEPES. The cell suspension was passed through a […] nylon cell strainer, centrifuged at 400 g for 5 minutes.
After LPMC isolation, a cell count was performed using a hemochromocytometer and 200,000 cells were placed in each well of a 96 well round bottomed plate until the supply was exhausted. Complete media either with or without IL23 (10 ng/ml Biolegend; San Diego, Calif.) was added to each well to a total volume of 200 μl and incubated at 37° C. at 5% CO2 for 4 hours. Then cells from wells treated in the same condition were combined in a 1.5 ml RNAse free Eppendorf. The Eppendorfs were centrifuged at 1200 g for 5 minutes, the supernatant was removed and 800 μl Qiazol (Qiagen, Germany) added and mechanically homogenized using a needle and syringe.
as §1
Library preparation and sequencing: A total amount of 3 μg RNA per sample was used as input material for the RNA sample preparations. Sequencing libraries were generated using NEBNextR Ultra™ RNA Library Prep Kit for IlluminaR (NEB, Ipswich, Mass.) following manufacturer's recommendations and index codes were added to attribute sequences to each sample. Briefly, mRNA was purified from total RNA using poly-T oligo-attached magnetic beads. Fragmentation was carried out using divalent cations under elevated temperature in NEBNext First Strand Synthesis Reaction Buffer (5×). First strand cDNA was synthesized using random hexamer primer and M-MuLV Reverse Transcriptase (RNase H-). Second strand cDNA synthesis was subsequently performed using DNA Polymerase I and RNase H. Remaining overhangs were converted into blunt ends via exonuclease/polymerase activities. After adenylation of 3′ ends of DNA fragments, NEBNext Adaptor with hairpin loop structure were ligated to prepare for hybridization. […]

Where [4] appears, read: patients with low IL22 enrichment scores (ES<0).

On to “IL13: human recombinant IL13 (10 ng/mL) used on human colonoids”, for which the “regulation of chemokine expression” value in assay [1] was “strongly upregulate both eosinophil-active chemokines CCL24 and CCL26”.
With “ustekinumab: monoclonal antibody blocking the p40 subunit shared by IL-12 and IL-23; heavy chain SEQ ID NO:10, light chain SEQ ID NO:11”, the “outcomes in UC patients with high IL22 enrichment scores” value in assay [2] (high IL22 enrichment scores) is recorded as “broadly comparable to placebo treated patients”. For the same molecule, in assay [2] (setting [4]), the clinical remission is 26.6%; the “deep remission (clinical, endoscopic and histologic remission)” value was found to be 22.7%; the mucosal healing came out at 25.9%. In assay [2] (unstratified UC patients), the “deep remission (clinical, endoscopic and histologic remission)” value was found to be 11.7%; the mucosal healing is 15.6%. Besides, the clinical remission in assay [2] (unstratified UC patients, ustekinumab induction 130 mg and 6 mg/kg pooled) worked out at 13.4%.
As to “IL23: recombinant IL23 (10 ng/ml, Biolegend) used to stimulate LPMC”, in assay [3] (IL23 10 ng/ml, 4 hours), the “GZMB transcript fold change” value turned out to be 1.40, the “IFNG transcript fold change” value came out at 1.77, the “IL17A transcript fold change” value worked out at 1.24 and the “IL17F transcript fold change” value is 1.70. Further, in assay [3] (IL23 10 ng/ml, 4 hours), the “IL22 transcript fold change” value is 1.69 and the “TNFRSF8 transcript fold change” value turned out to be 1.41. In assay [3] (filtered at P<0.01), this molecule displayed a differentially expressed transcripts of 222 transcripts, a downregulated transcripts of 110 and an upregulated transcripts of 112.

B1: IFNγ: human recombinant IFNγ (20 ng/mL) used on human colonoids (protein, UniProt P01579 24-161, looked up)
Interferon gamma: QDPYVKEAENLKKYFNAGHSDVADNGTLFLGILKNWKEESDRKIMQSQIVSFYFKLFKNFKDDQSIQKSVETIKEDMNVKFFNSNKKKRDDFEKLTNYSVTDLNVQRKAIHELIQVMAELSPAAKTGKRKRSQMLFRG
With B1, the “regulation of chemokine expression” value in assay [1] was “strongly upregulated CXCL9 and CXCL10”.
